# From patent US20250082674A1, “METHODS OF TREATING COPPER METABOLISM-ASSOCIATED DISEASES OR DISORDERS” (priority 2021, published 2025)
# Read-outs that look alike come from different tables or passages of the source.
# What was measured:
# [1] = human, in vivo
# Description: Pharmacokinetics: Blood samples for PK analysis were collected to measure plasma total molybdenum and plasma ultrafiltrate (PUF) molybdenum.
# [2] = test system: patients with Wilson disease (WD); conditions: for Transformed CGI-I Mean (SD): scores −3 (Very much improved) to 3 (Very much worse)
# Description: Dose modification, if required, was made as described herein.
substance,measurement,setting,value
Bis-choline tetrathiomolybdate [BC-TTM],"Daily Mean AUC(0-48 weeks) PUF Mo, Mean",[1],0.1 mmol/L
same,"CGI-S (1 to 7, 1 is normal) Mean",[2]; Baseline,2.7
same,UWDRS Part II (0-40) Mean,[2]; Baseline,3.4
same,UWDRS Part III (0-175) Mean,[2]; Baseline,13.99
same,UWDRS Part III functional subscale (0-10) Mean,[2]; Baseline,1.390
same,UWDRS Part III-arising from chair (0-4) Mean,[2]; Baseline,0.3
same,UWDRS Part III-gait (0-4) Mean,[2]; Baseline,1.40
same,UWDRS Part III-handwriting (0-4) Mean,[2]; Baseline,0.6
same,UWDRS Part III-speech (0-4) Mean,[2]; Baseline,0.8
same,"key secondary endpoints (UWDRS, CGI) versus baseline","[2]; Study 301 extension period, interim",statistically significant improvements from baseline
same,"CGI-S (1 to 7, 1 is normal) LSM (SE) change from baseline",[2]; Week 24,−0.3 (0.07)
same,"CGI-S (1 to 7, 1 is normal) Mean (SD) change from baseline",[2]; Week 24,−0.2 (0.79)
same,UWDRS Part II (0-40) LSM (SE) change from baseline,[2]; Week 24,−0.4 (0.20)
same,UWDRS Part II (0-40) Mean (SD) change from baseline,[2]; Week 24,−0.3 (1.99)
same,UWDRS Part III (0-175) LSM (SE) change from baseline,[2]; Week 24,−1.32 (0.619)
same,UWDRS Part III (0-175) Mean (SD) change from baseline,[2]; Week 24,−0.74 (5.937)
same,UWDRS Part III functional subscale (0-10) LSM (SE) change from baseline,[2]; Week 24,−0.158 (0.0547)
same,UWDRS Part III functional subscale (0-10) Mean (SD) change from baseline,[2]; Week 24,−0.139 (0.4540)
same,UWDRS Part III-arising from chair (0-4) LSM (SE) change from baseline,[2]; Week 24,−0.1 (0.03)
same,UWDRS Part III-arising from chair (0-4) Mean (SD) change from baseline,[2]; Week 24,0.0 (0.38)
same,UWDRS Part III-gait (0-4) LSM (SE) change from baseline,[2]; Week 24,−0.21 (0.100)
same,UWDRS Part III-gait (0-4) Mean (SD) change from baseline,[2]; Week 24,−0.17 (1.113)
same,UWDRS Part III-handwriting (0-4) LSM (SE) change from baseline,[2]; Week 24,0.0 (0.04)
same,UWDRS Part III-handwriting (0-4) Mean (SD) change from baseline,[2]; Week 24,−0.1 (0.38)
same,UWDRS Part III-speech (0-4) LSM (SE) change from baseline,[2]; Week 24,−0.1 (0.04)
same,UWDRS Part III-speech (0-4) Mean (SD) change from baseline,[2]; Week 24,−0.1 (0.38)
same,Transformed CGI-I Mean (SD),[2]; Week 24,−0.5 (0.82)
same,"CGI-S (1 to 7, 1 is normal) LSM (SE) change from baseline",[2]; Week 48,−0.4 (0.07)
same,"CGI-S (1 to 7, 1 is normal) Mean (SD) change from baseline",[2]; Week 48,−0.5 (0.94)
same,UWDRS Part II (0-40) LSM (SE) change from baseline,[2]; Week 48,−0.7 (0.21)
same,UWDRS Part II (0-40) Mean (SD) change from baseline,[2]; Week 48,−0.7 (2.70)
same,UWDRS Part III (0-175) LSM (SE) change from baseline,[2]; Week 48,−2.47 (0.638)
same,UWDRS Part III (0-175) Mean (SD) change from baseline,[2]; Week 48,−2.32 (7.735)
same,UWDRS Part III functional subscale (0-10) LSM (SE) change from baseline,[2]; Week 48,−0.230 (0.0569)
same,UWDRS Part III functional subscale (0-10) Mean (SD) change from baseline,[2]; Week 48,−0.235 (0.6976)
same,UWDRS Part III-arising from chair (0-4) LSM (SE) change from baseline,[2]; Week 48,0.0 (0.04)
same,UWDRS Part III-arising from chair (0-4) Mean (SD) change from baseline,[2]; Week 48,0.0 (0.40)
same,UWDRS Part III-gait (0-4) LSM (SE) change from baseline,[2]; Week 48,−0.26 (0.104)
same,UWDRS Part III-gait (0-4) Mean (SD) change from baseline,[2]; Week 48,−0.18 (1.262)
same,UWDRS Part III-handwriting (0-4) LSM (SE) change from baseline,[2]; Week 48,−0.1 (0.04)
same,UWDRS Part III-handwriting (0-4) Mean (SD) change from baseline,[2]; Week 48,−0.2 (0.59)
same,UWDRS Part III-speech (0-4) LSM (SE) change from baseline,[2]; Week 48,−0.1 (0.04)
same,UWDRS Part III-speech (0-4) Mean (SD) change from baseline,[2]; Week 48,−0.1 (0.53)
same,Transformed CGI-I Mean (SD),[2]; Week 48,−0.7 (0.91)
same,"CGI-S (1 to 7, 1 is normal) LSM (SE) change from baseline",[2]; Week 72,−0.5 (0.07)
same,"CGI-S (1 to 7, 1 is normal) Mean (SD) change from baseline",[2]; Week 72,−0.6 (1.10)
same,UWDRS Part II (0-40) LSM (SE) change from baseline,[2]; Week 72,−1.0 (0.22)
same,UWDRS Part II (0-40) Mean (SD) change from baseline,[2]; Week 72,−1.2 (2.92)
same,UWDRS Part III (0-175) LSM (SE) change from baseline,[2]; Week 72,−3.47 (0.672)
same,UWDRS Part III (0-175) Mean (SD) change from baseline,[2]; Week 72,−3.27 (9.840)
same,UWDRS Part III functional subscale (0-10) LSM (SE) change from baseline,[2]; Week 72,−0.253 (0.0604)
same,UWDRS Part III functional subscale (0-10) Mean (SD) change from baseline,[2]; Week 72,−0.290 (0.8908)
same,UWDRS Part III-arising from chair (0-4) LSM (SE) change from baseline,[2]; Week 72,−0.1 (0.04)
same,UWDRS Part III-arising from chair (0-4) Mean (SD) change from baseline,[2]; Week 72,−0.1 (0.57)
same,UWDRS Part III-gait (0-4) LSM (SE) change from baseline,[2]; Week 72,−0.15 (0.110)
same,UWDRS Part III-gait (0-4) Mean (SD) change from baseline,[2]; Week 72,−0.12 (1.321)
same,UWDRS Part III-handwriting (0-4) LSM (SE) change from baseline,[2]; Week 72,−0.2 (0.05)
same,UWDRS Part III-handwriting (0-4) Mean (SD) change from baseline,[2]; Week 72,−0.2 (0.59)
same,UWDRS Part III-speech (0-4) LSM (SE) change from baseline,[2]; Week 72,−0.1 (0.04)
same,UWDRS Part III-speech (0-4) Mean (SD) change from baseline,[2]; Week 72,−0.1 (0.51)
same,Transformed CGI-I Mean (SD),[2]; Week 72,−0.5 (0.86)
same,"CGI-S (1 to 7, 1 is normal) LSM (SE) change from baseline",[2]; Week 96,−0.5 (0.09)
same,"CGI-S (1 to 7, 1 is normal) Mean (SD) change from baseline",[2]; Week 96,−0.6 (0.97)
same,UWDRS Part II (0-40) LSM (SE) change from baseline,[2]; Week 96,−1.1 (0.30)
same,UWDRS Part II (0-40) Mean (SD) change from baseline,[2]; Week 96,−1.1 (3.61)
same,UWDRS Part III (0-175) LSM (SE) change from baseline,[2]; Week 96,−4.77 (0.865)
same,UWDRS Part III (0-175) Mean (SD) change from baseline,[2]; Week 96,−4.09 (10.827)
same,UWDRS Part III functional subscale (0-10) LSM (SE) change from baseline,[2]; Week 96,−0.386 (0.0801)
same,UWDRS Part III functional subscale (0-10) Mean (SD) change from baseline,[2]; Week 96,−0.503 (0.9648)
same,UWDRS Part III-arising from chair (0-4) LSM (SE) change from baseline,[2]; Week 96,−0.1 (0.05)
same,UWDRS Part III-arising from chair (0-4) Mean (SD) change from baseline,[2]; Week 96,−0.2 (0.76)
same,UWDRS Part III-gait (0-4) LSM (SE) change from baseline,[2]; Week 96,−0.12 (0.143)
same,UWDRS Part III-gait (0-4) Mean (SD) change from baseline,[2]; Week 96,−0.11 (1.390)
same,UWDRS Part III-handwriting (0-4) LSM (SE) change from baseline,[2]; Week 96,−0.3 (0.06)
same,UWDRS Part III-handwriting (0-4) Mean (SD) change from baseline,[2]; Week 96,−0.4 (0.66)
same,UWDRS Part III-speech (0-4) LSM (SE) change from baseline,[2]; Week 96,−0.2 (0.05)
same,UWDRS Part III-speech (0-4) Mean (SD) change from baseline,[2]; Week 96,−0.2 (0.57)
same,Transformed CGI-I Mean (SD),[2]; Week 96,−0.5 (0.98)
same,"CGI-S (1 to 7, 1 is normal) LSM (SE) change from baseline",[2]; Week 120,−0.7 (0.11)
same,"CGI-S (1 to 7, 1 is normal) Mean (SD) change from baseline",[2]; Week 120,−0.6 (1.06)
